ChEMBL document CHEMBL1201862, “PubChem BioAssay data set” (2004)
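These data come from cells grown in 96-well plates and exposed to compound for 48 hours at five concentrations. GI50: concentration for 50% inhibition of growth.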 Activity calls are given as the source filed them. No stated cut-off is given here; in the data, active = GI50 up to about 1.1 µM and inactive = higher.

Experiments:
Experiment in all cases: growth of human tumour cells (NCI), 48 h
[1] = system: 786-0
[2] = system: A498
[3] = system: A549
[4] = system: ACHN
[5] = system: BT-549
[6] = system: CAKI-1
[7] = system: CCRF-CEM
[8] = system: COLO 205
[9] = system: DU-145
[10] = system: EKVX
[11] = system: HCC 2998
[12] = system: HCT-116
[13] = system: HCT-15
[14] = system: HL-60
[15] = system: HOP-62
[16] = system: HOP-92
[17] = system: HT-29
[18] = system: Hs-578T
[19] = system: IGROV-1
[20] = system: K562
[21] = system: KM12
[22] = system: LOX IMVI
[23] = system: M14
[24] = system: MCF7
[25] = system: MDA-MB-231
[26] = system: MDA-MB-435
[27] = system: MDA-N
[28] = system: MOLT-4
[29] = system: Malme-3M
[30] = system: NCI-H226
[31] = system: NCI-H23
[32] = system: NCI-H460
[33] = system: NCI-H522
[34] = system: NCI/ADR-RES
[35] = system: OVCAR-3
[36] = system: OVCAR-4
[37] = system: OVCAR-5
[38] = system: OVCAR-8
[39] = system: PC-3
[40] = system: RPMI-8226
[41] = system: RXF 393
[42] = system: SF-268
[43] = system: SF-295
[44] = system: SF-539
[45] = system: SK-MEL-28
[46] = system: SK-MEL-2
[47] = system: SK-MEL-5
[48] = system: SK-OV-3
[49] = system: SN12C
[50] = system: SNB-19
[51] = system: SNB-75
[52] = system: SR
[53] = system: SW-620
[54] = system: T47D
[55] = system: TK-10
[56] = system: U-251
[57] = system: UACC-257
[58] = system: UACC-62
[59] = system: UO-31
[60] = system: DMS-114
[61] = system: KM-20L2
[62] = system: LXFL 529
[63] = system: M19-MEL
[64] = system: SNB-78

With `Cn1c(=O)cc(/N=N\c2ccc(Cl)c(Cl)c2)[nH]c1=O` the GI50 [1] was 17.6 µM (inactive), the GI50 [2] was > 100 µM (inactive) and the GI50 [3] was > 100 µM (inactive). For the same molecule, the GI50 [4] was 21.2 µM (inactive), the GI50 [5] was 29 µM (inactive) and the GI50 [6] was 13.4 µM (inactive). The GI50 [7] was 24.2 µM (inactive), the GI50 [8] was 22.2 µM (inactive) and the GI50 [9] was 85.5 µM (inactive). The GI50 [10] was 24.5 µM (inactive), the GI50 [11] was 56.8 µM (inactive) and the GI50 [12] was 28.4 µM (inactive). For the same molecule, the GI50 [13] was 19.6 µM, the GI50 [14] was 20.8 µM (inactive) and the GI50 [15] was > 100 µM (inactive). The GI50 [16] was 30 µM (inactive), the GI50 [17] was 19.9 µM (inactive) and the GI50 [18] was 33.4 µM (inactive). The GI50 [19] was 33 µM (inactive), the GI50 [20] was 28.1 µM (inactive) and the GI50 [21] was > 100 µM (inactive). For the same molecule, the GI50 [22] was 19.2 µM (inactive), the GI50 [23] was 20.3 µM (inactive) and the GI50 [24] was 26.7 µM (inactive). For the same molecule, the GI50 [25] was 24.8 µM (inactive), the GI50 [26] was 21.1 µM (inactive) and the GI50 [27] was 18.7 µM (inactive). For the same molecule, the GI50 [28] was 28.6 µM (inactive), the GI50 [29] was 16.1 µM (inactive) and the GI50 [30] was > 100 µM (inactive). For the same molecule, the GI50 [31] was 37.3 µM (inactive), the GI50 [32] was 29.9 µM (inactive) and the GI50 [33] was 25.6 µM (inactive). For the same molecule, the GI50 [34] was 34.2 µM (inactive), the GI50 [35] was 18.7 µM (inactive) and the GI50 [36] was 27.7 µM (inactive). For the same molecule, the GI50 [37] was 24.8 µM (inactive), the GI50 [38] was 23.4 µM (inactive) and the GI50 [39] was 23.3 µM (inactive). For the same molecule, the GI50 [40] was 28.3 µM (inactive), the GI50 [41] was 23.3 µM (inactive) and the GI50 [42] was 20.1 µM (inactive). The GI50 [43] was > 100 µM (inactive), the GI50 [44] was > 100 µM (inactive) and the GI50 [45] was 23.6 µM (inactive). The GI50 [46] was 14.6 µM (inactive), the GI50 [47] was 35.2 µM (inactive) and the GI50 [48] was > 100 µM (inactive). The GI50 [49] was 41.1 µM (inactive), the GI50 [50] was 63.8 µM (inactive) and the GI50 [51] was 49.2 µM (inactive). For the same molecule, the GI50 [52] was 25.5 µM (inactive), the GI50 [53] was 24.3 µM (inactive) and the GI50 [54] was 29.7 µM (inactive). The GI50 [55] was 23.8 µM (inactive), the GI50 [56] was 23.3 µM (inactive) and the GI50 [57] was 33.5 µM (inactive). For the same molecule, the GI50 [58] was 62.2 µM (inactive) and the GI50 [59] was > 100 µM (inactive).
With `O=C(NNC(=O)c1ccccc1S)c1ccccc1S` [BIS(THIOSALICYL)HYDRAZIDE] the GI50 [1] was 9.42 µM (inactive), the GI50 [2] was > 100 µM (inactive) and the GI50 [3] was 14.3 µM (inactive). The GI50 [4] was 10.8 µM (inactive), the GI50 [5] was 9.38 µM (inactive) and the GI50 [6] was 6.93 µM (inactive). The GI50 [7] was 1.24 µM (inactive), the GI50 [8] was 11.1 µM (inactive) and the GI50 [9] was 20.6 µM (inactive). For the same molecule, the GI50 [10] was 8.34 µM (inactive), the GI50 [11] was 5.96 µM (inactive) and the GI50 [12] was 6.79 µM (inactive). The GI50 [13] was 6.03 µM, the GI50 [14] was 8.79 µM (inactive) and the GI50 [15] was 15.9 µM (inactive). The GI50 [16] was > 25 µM (inactive), the GI50 [17] was 8.47 µM (inactive) and the GI50 [18] was 45 µM (inactive). The GI50 [19] was 7.29 µM (inactive), the GI50 [20] was 14.6 µM (inactive) and the GI50 [21] was 24.5 µM (inactive). For the same molecule, the GI50 [22] was 9.84 µM (inactive), the GI50 [23] was 10.3 µM (inactive) and the GI50 [24] was 10 µM (inactive). The GI50 [25] was > 25 µM (inactive), the GI50 [26] was 14.6 µM (inactive) and the GI50 [27] was 18.2 µM (inactive). For the same molecule, the GI50 [28] was 7.11 µM (inactive), the GI50 [29] was 23.7 µM (inactive) and the GI50 [30] was 15.5 µM (inactive). The GI50 [31] was 11.1 µM (inactive), the GI50 [32] was 9.29 µM (inactive) and the GI50 [33] was 0.0154 µM (active). The GI50 [34] was 11.3 µM (inactive), the GI50 [35] was 9.14 µM (inactive) and the GI50 [36] was 15.6 µM (inactive). The GI50 [37] was 12.4 µM (inactive), the GI50 [38] was 12 µM (inactive) and the GI50 [39] was 32.1 µM (inactive). The GI50 [40] was 18.4 µM (inactive), the GI50 [41] was 22.6 µM (inactive) and the GI50 [42] was 11.2 µM (inactive). For the same molecule, the GI50 [43] was 10.3 µM (inactive), the GI50 [44] was 11.7 µM (inactive) and the GI50 [45] was > 25 µM (inactive). The GI50 [46] was 43.9 µM (inactive), the GI50 [47] was 23 µM (inactive) and the GI50 [48] was > 25 µM (inactive). The GI50 [49] was 13.6 µM (inactive), the GI50 [50] was 23.4 µM (inactive) and the GI50 [51] was 18 µM (inactive). For the same molecule, the GI50 [52] was 13.5 µM (inactive), the GI50 [53] was 11.6 µM (inactive) and the GI50 [54] was 10.8 µM (inactive). For the same molecule, the GI50 [55] was > 25 µM (inactive), the GI50 [56] was 15.1 µM (inactive) and the GI50 [57] was 13.8 µM (inactive). The GI50 [58] was 9.27 µM (inactive) and the GI50 [59] was 8.43 µM (inactive).
`CCN(CC)CCNc1ccc(CO)c2sc3ccccc3c(=O)c12` [HYCANTHONE] was tested, and the GI50 [2] was 8.22 µM (inactive), the GI50 [3] was 6.85 µM (inactive) and the GI50 [6] was 5.92 µM (inactive). The GI50 [60] was 11.5 µM (inactive), the GI50 [10] was 13.7 µM (inactive) and the GI50 [12] was 4.8 µM (inactive). The GI50 [61] was 5.37 µM (inactive), the GI50 [62] was 12.7 µM (inactive) and the GI50 [63] was 13 µM (inactive). The GI50 [28] was 2.79 µM (inactive), the GI50 [30] was 13.9 µM (inactive) and the GI50 [31] was > 10 µM (inactive). For the same molecule, the GI50 [32] was 4.04 µM (inactive), the GI50 [33] was 4.04 µM (inactive) and the GI50 [36] was 5.37 µM (inactive). The GI50 [37] was 12.5 µM (inactive), the GI50 [38] was 6.37 µM (inactive) and the GI50 [40] was 10.8 µM (inactive). The GI50 [42] was 8.89 µM (inactive), the GI50 [43] was 7.14 µM (inactive) and the GI50 [44] was 11.2 µM (inactive). The GI50 [45] was 16.8 µM (inactive), the GI50 [50] was 9.51 µM (inactive) and the GI50 [64] was 12.7 µM (inactive). For the same molecule, the GI50 [52] was 3.18 µM (inactive), the GI50 [53] was 5.48 µM (inactive) and the GI50 [56] was 10.5 µM (inactive). The GI50 [57] was 15.8 µM (inactive), the GI50 [58] was 19.5 µM (inactive) and the GI50 [59] was 6.58 µM (inactive).
